Data reported in patent US20060101536A1, “Eucalyptus urophylla transformation and regeneration” (ArborGen, LLC, priority 2004, published 2006).

Tests used:
[1] = system: Elite Eucalyptus urophylla clone; assay: Auxin pre-treatment, Agrobacterium infection rate by GUS staining; assay type: cell-based
Description: GUS staining was performed to monitor the frequency of Agrobacterium infection and to ensure that the selected shoots are not escapes or chimeras. […] To determine GUS activity, the explants were incubated in a substrate comprising 100 mM phosphate buffer (pH 7.0), 0.05% dimethyl suphoxide, 0.05% Triton X-100, 10 mM EDTA, 0.5 mM potassium ferrocyanide, and 1.5 mg/ml 5-bromo-4-chloro-3-indolyl-β-D-glucuronide (X-gluc). The explants were subjected to 10 minutes of vacuum before an overnight incubation at 37° C. Following overnight incubation, GUS foci were counted.
Explants from E. urophylla and E. saligna were prepared as described in Example 1 and Agrobacterium strain GV2260 containing pWVR133 was prepared as described in Example 3. Harvested explants were incubated in the dark for 4 days either on Eucalyptus regeneration medium or a medium with various auxin-rich growth regulators. Agrobacterium culture was dripped on explants and co-cultured with the explants on the same medium for 3 days in dark. Then, explants were removed from the Agrobacterium puddle and transferred to Euc Regeneration medium supplemented with 400 mg/l timentin for 4 days. Following transfer to regeneration medium, the explants were stained for GUS expression.

[2] = system: Elite Eucalyptus urophylla clone; assay: Shoot regeneration after pre-culture in control experiments; assay type: cell-based; conditions: medium with 1.0 mg/l 2,4-D (0.5 mg/l zeatin)
Excerpt: In addition, the regeneration is not affected by the pre-culture in control experiments.

E. urophylla = assay: Combining auxin with Agrobacterium inducer in pre-culture, infection by GUS staining; assay type: cell-based, Eucalyptus urophylla; conditions: Table 8
Description: Induced Agrobacterium culture was prepared as described in Example 3 and the culture was dripped onto each explant by pipette. Sufficient Agrobacterium culture was dripped to ensure that all the cut edges were covered with bacterial solution. Alternatively, the explants may be transformed by vacuum infiltration, floral dip, and other methods of Agrobacterium-mediated transformation. Following transformation, explants covered with Agrobacterium culture were placed in the dark for four days of co-cultivation. Alternatively, the explants may be co-cultivated with Agrobacterium under light conditions. Additionally, the explants may be co-cultivated with Agrobacterium under light or dark conditions for 2-10 days, preferably 4 days. Following co-cultivation, the explants were transferred to Euc Regeneration medium (Table 3) with 400 mg/l timentin. There is no need to wash explants. Explants were cultured on this medium for four days before transfer to a selection medium. In the present example, the selection medium is the Euc Regeneration medium supplemented with both timentin and an herbicide selection agent.
(§1) GUS staining was performed to monitor the frequency of Agrobacterium infection and to ensure that the selected shoots are not escapes or chimeras. For transformation experiments with pWVR133, the leaf and stem tissues from the regenerated shoots were stained for GUS expression immediately upon shoot development. For transformation experiments with pWVZ20, leaf and stem tissues from the regenerated shoots were stained for GUS expression when shoots are further developed and free from residual Agrobacterium. To determine GUS activity, the explants were incubated in a substrate comprising 100 mM phosphate buffer (pH 7.0), 0.05% dimethyl suphoxide, 0.05% Triton X-100, 10 mM EDTA, 0.5 mM potassium ferrocyanide, and 1.5 mg/ml 5-bromo-4-chloro-3-indolyl-β-D-glucuronide (X-gluc). The explants were subjected to 10 minutes of vacuum before an overnight incubation at 37° C. Following overnight incubation, GUS foci were counted.
In the following examples, explants from E. urophylla clones were cultured on auxin-rich pre-culture medium with or without 250 μM AS before infection. Explants were pre-cultured with Euc Regeneration medium as the control. Following pre-culture, the explants were inoculated with Agrobacterium as described in Example 5.

[3] = system: wounded cells along the cut edges; assay: Agrobacterium inducer alone in pre-culture medium, infection by GUS staining; assay type: cell-based
[4] = system: E. urophylla leaf explants; assay: Geneticin selection of NPTII transformants, GUS staining of resistant calli; assay type: cell-based, Eucalyptus urophylla; conditions: about 10 weeks selection
Description: as §1
E. urophylla leaf explants were infected with Agrobacterium strain GV2260 harboring pWVC33, which contains GUS gene (driven by an constitutive promoter) and NPTII gene (driven by a different constitutive promoter). Before transforming, the explants were pre-cultured for 4 days on a medium having auxin enrichment (IAA at 2 mg/l instead of 0.1 mg/l NAA in standard regeneration medium) and acetosyringone (250 μM). As described in Example 6, the explants were infected with Agrobacterium, co-cultivated on the same medium for 3 days, and then transferred to a regeneration medium supplemented with 400 mg/l timentin for 4 days. Then, the explants were transferred to a selection medium containing geneticin instead of an herbicide selection agent.
The transformants were placed on geneticin selection medium containing geneticin (either 20 or 30 mg/l). Instead of the 3- or 4-week transfer cycles used with an herbicide selection medium, the explants were transferred bi-weekly to fresh geneticin medium. […]

[5] = Table 6, 0.25 mg/l 2,4-D + 0.5 mg/l zeatin
[6] = Table 6, 1.0 mg/l 2,4-D + 0.5 mg/l zeatin
[7] = Table 7, 0.5 mg/l in EucReg Medium + 5 mg/l zeatin
[8] = Table 7, 0.5 mg/l in EucReg Medium + 5 mg/l zeatin, 25 explants
[9] = Table 7, 1.0 mg/l in EucReg Medium + 5 mg/l zeatin
[10] = Table 7, 1.0 mg/l in EucReg Medium + 5 mg/l zeatin, 25 explants
[11] = 0.25 mg/l 2,4-D + 5.0 mg/l zeatin, with or without 250 μM AS
[12] = Table 7, 2.0 mg/l in EucReg Medium + 5 mg/l zeatin
[13] = Table 7, 2.0 mg/l in EucReg Medium + 5 mg/l zeatin, 25 explants
[14] = Table 7, 3.0 mg/l in EucReg Medium + 5 mg/l zeatin
[15] = 2 mg/l IAA + 5.0 mg/l zeatin, with or without 250 μM AS
[16] = Table 6, 0.1 mg/l NAA + 5.0 mg/l zeatin (Control Regeneration Medium)
[17] = Table 7, 0.1 mg/l in EucReg Medium + 5 mg/l zeatin
[18] = Table 7, 0.1 mg/l in EucReg Medium + 5 mg/l zeatin, 25 explants
[19] = 0.1 mg/l NAA + 5.0 mg/l zeatin (Control Regeneration Medium)

Row | Structure (SMILES) | % GUS+ [1, 7] | Avg. No. Foci/Responding Explant [1, 7] | No. GUS Foci [1, 7] | No. GUS+ [1, 8] | % GUS+ [1, 9] | Avg. No. Foci/Responding Explant [1, 9] | No. GUS Foci [1, 9] | No. GUS+ [1, 10] | % GUS+ [1, 12] | Avg. No. Foci/Responding Explant [1, 12] | No. GUS Foci [1, 12] | No. GUS+ [1, 13] | % GUS+ [1, 17] | Avg. No. Foci/Responding Explant [1, 17] | No. GUS Foci [1, 17] | No. GUS+ [1, 18] | also measured
1 | O=C(O)COc1ccc(Cl)cc1Cl [2,4-D, 2,4-Dichlorophenoxy acetic acid] | 80% | 4.9 | 97 | 20 | 48% | 5.3 | 64 | 12 |  |  |  |  |  |  |  |  | % GUS+ [1, 5]: 17%; Avg. No. Foci/Responding Explant [1, 5]: 1.5; No. GUS Foci [1, 5]: 7; No. GUS+ ([1]; Table 6, 0.25 mg/l 2,4-D + 0.5 mg/l zeatin, 24 explants): 4; % GUS+ [1, 6]: 60%; Avg. No. Foci/Responding Explant [1, 6]: 10.3; No. GUS Foci [1, 6]: 155; No. GUS+ ([1]; Table 6, 1.0 mg/l 2,4-D + 0.5 mg/l zeatin, 25 explants): 15; shoot regeneration [2]: delay of shoot regeneration; % GUS+ (E. urophylla; [11]): 72%; Avg. No. Foci/Responding Explant (E. urophylla; [11]): 10.8; No. GUS Foci (E. urophylla; [11]): 388; No. GUS+ (E. urophylla; 0.25 mg/l 2,4-D + 5.0 mg/l zeatin, with or without 250 μM AS, 50 explants): 36
2 | COc1cc(C(C)=O)cc(OC)c1O [AS, acetosyringone] |  |  |  |  |  |  |  |  |  |  |  |  |  |  |  |  | infection ([3]; AS alone in the pre-culture medium): stimulates infection; infection of the wounded cells along the cut edges ([3]; GUS staining): increases the infection of the wounded cells along the cut edges
3 | CN[C@@H]1[C@@H](O)[C@@H](O[C@@H]2[C@@H](O)[C@H](O[C@H]3O[C@H]([C@@H](C)O)[C@@H](O)[C@H](O)[C@H]3N)[C@@H](N)C[C@H]2N)OC[C@]1(C)O [Geneticin] |  |  |  |  |  |  |  |  |  |  |  |  |  |  |  |  | No. GUS+ Calli ([4]; Geneticin 20 mg/l, Regular shaded light, 5 calli stained): 0; No. GUS+ Calli ([4]; Geneticin 30 mg/l, Dark, 6 calli stained): 4; No. GUS+ Calli ([4]; Geneticin 30 mg/l, Regular shaded light, 17 calli stained): 13
4 | O=C(O)Cc1c[nH]c2ccccc12 [IAA, indole-3-acetic acid] |  |  |  |  | 64% | 7.3 | 116 | 16 | 64% | 10.4 | 167 | 16 |  |  |  |  | % GUS+ [1, 14]: 96%; Avg. No. Foci/Responding Explant [1, 14]: 12.3; No. GUS Foci [1, 14]: 565; No. GUS+ ([1]; Table 7, 3.0 mg/l in EucReg Medium + 5 mg/l zeatin, 48 explants): 46; % GUS+ (E. urophylla; [15]): 73%; Avg. No. Foci/Responding Explant (E. urophylla; [15]): 8.0; No. GUS Foci (E. urophylla; [15]): 289; No. GUS+ (E. urophylla; 2 mg/l IAA + 5.0 mg/l zeatin, with or without 250 μM AS, 49 explants): 36
5 | O=C(O)Cc1cccc2ccccc12 [NAA, naphthaleneacetic acid] |  |  |  |  | 52% | 2.7 | 35 | 13 | 36% | 3.3 | 30 | 9 | 16% | 1.3 | 5 | 4 | % GUS+ [1, 16]: 12%; Avg. No. Foci/Responding Explant [1, 16]: 2.3; No. GUS Foci [1, 16]: 6; No. GUS+ ([1]; Table 6, 0.1 mg/l NAA + 5.0 mg/l zeatin (Control Regeneration Medium), 25 explants): 3; % GUS+ (E. urophylla; [19]): 22%; Avg. No. Foci/Responding Explant (E. urophylla; [19]): 3.4; No. GUS Foci (E. urophylla; [19]): 37; No. GUS+ (E. urophylla; 0.1 mg/l NAA + 5.0 mg/l zeatin (Control Regeneration Medium), 50 explants): 11
6 | O=C(Nc1ccccc1)Nc1cnns1 [TDZ, thiadiazuron] | 4% | 3.0 | 3 | 1 | 0% | 0.0 | 0 | 0 |  |  |  |  | 12% | 8.3 | 25 | 3 | 
